Data as given in US8530522B2, “Organic compounds” (Novartis AG, priority 2008, dated 2013).
Where a name gives a salt, the structure may show the parent alone.

Columns and labels:
[1] = Water sorption/desorption isotherms (Dynamic Vapor System DVS-1); format: physicochemical
Protocol: Sorption/desorption isotherms were measured using the Dynamic Vapor System (DVS-1). Measurement was carried out at 25° C. and 40° C.

[2] = Storage of Form I samples at elevated temperature and 75% r.h.; format: physicochemical

Row | relative humidity of first water uptake, water sorption isotherm ([1]; isotherm recorded at 25° C.) [% r.h.] | relative humidity of first significant water uptake, water sorption isotherm ([1]; isotherm recorded at 40° C.) [% r.h.] | solid form after storage ([2]; stored 1 month at 60° C. and 75% r.h.) | solid form after storage ([2]; stored 1 month at 80° C. and 75% r.h.) | Structure (SMILES)
1 | 90 | 80 |  |  | CCCCCCCCc1ccc(CCC(N)(CO)CO)cc1 [FTY720 HCl, 2-amino-2-[2-(4-octylphenyl)ethyl]propane-1,3-diol hydrochloride salt]
2 |  |  | conversion to the hydrate form | conversion to the hydrate form | CCCCCCCCc1ccc(CCC(N)(CO)CO)cc1 [Form I]
